Measurements from ChEMBL document CHEMBL1201862, “PubChem BioAssay data set” (2004).
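Cultured in 96-well plates, cells were exposed to test compound for 48 hours across five concentrations. Abbreviation: GI50, concentration required for 50% inhibition of growth.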 The source made the active and inactive calls. Rule as the data show it: active = GI50 up to about 1.1 µM and inactive = higher.

What was measured:
Test in all cases: inhibition of tumour cell growth, NCI panel, 48 h
SK-MEL-28 = system: SK-MEL-28
SK-OV-3 = system: SK-OV-3
SF-539 = system: SF-539
UACC-257 = system: UACC-257
SNB-19 = system: SNB-19
OVCAR-3 = system: OVCAR-3
MCF7 = system: MCF7
HOP-92 = system: HOP-92
OVCAR-8 = system: OVCAR-8
HOP-62 = system: HOP-62
IGROV-1 = system: IGROV-1
UACC-62 = system: UACC-62
COLO 205 = system: COLO 205
HCT-116 = system: HCT-116
SF-295 = system: SF-295
MDA-N = system: MDA-N
TK-10 = system: TK-10
MDA-MB-231 = system: MDA-MB-231
PC-3 = system: PC-3
SR = system: SR

| SMILES | GI50 (SK-MEL-28) | GI50 (SK-OV-3) | GI50 (SF-539) | GI50 (UACC-257) | GI50 (SNB-19) | GI50 (OVCAR-3) | GI50 (MCF7) | GI50 (HOP-92) | GI50 (OVCAR-8) | GI50 (HOP-62) | GI50 (IGROV-1) | GI50 (UACC-62) | GI50 (COLO 205) | GI50 (HCT-116) | GI50 (SF-295) | GI50 (MDA-N) | GI50 (TK-10) | GI50 (MDA-MB-231) | GI50 (PC-3) | GI50 (SR) |
| --- | --- | --- | --- | --- | --- | --- | --- | --- | --- | --- | --- | --- | --- | --- | --- | --- | --- | --- | --- | --- |
| CCCNC1=C(C)C(=O)C2=C(C1=O)[C@H](COC(N)=O)[C@]1(OC)[C@@H]3N[C@@H]3CN21 | 19.8 µM (inactive) | 16.6 µM (inactive) | 4.39 µM (inactive) | 5.55 µM (inactive) | 2.01 µM (inactive) | 11.6 µM (inactive) | 0.0422 µM (active) | 8.57 µM (inactive) | 10 µM (inactive) | 0.303 µM (active) | 5.04 µM (inactive) | 0.472 µM (active) | 3.94 µM (inactive) | 3.69 µM (inactive) | 2.39 µM (inactive) | – | – | – | – | – |
| O=C1/C(=C2/CCCN2)C(c2ccc[nH]2)=NN1c1ccccc1 | > 100 µM (inactive) | > 100 µM (inactive) | > 100 µM (inactive) | > 100 µM (inactive) | > 100 µM (inactive) | > 100 µM (inactive) | – | > 100 µM (inactive) | > 100 µM (inactive) | – | – | > 100 µM (inactive) | > 100 µM (inactive) | > 100 µM (inactive) | > 100 µM (inactive) | > 100 µM (inactive) | > 100 µM (inactive) | > 100 µM (inactive) | > 100 µM (inactive) | – |
| Cc1ccc(C(C)(C)C[P+](C)(c2ccccc2)c2ccccc2)cc1 | 8.51 µM (inactive) | 22.1 µM (inactive) | 28 µM (inactive) | 3.56 µM (inactive) | 12 µM (inactive) | 3.24 µM (inactive) | 7.93 µM (inactive) | 1.97 µM (inactive) | 12.7 µM (inactive) | 18.4 µM (inactive) | 5.28 µM (inactive) | 5.38 µM (inactive) | 4.42 µM (inactive) | 6.56 µM (inactive) | 26.7 µM (inactive) | – | – | – | – | – |
| COc1ccc2c(c1)CC[C@@H]1[C@@H]2CC[C@]2(C)C(=O)/C(=C/c3cc(OC)c(OC)c(OC)c3)C[C@@H]12 | – | 44 µM (inactive) | 28.2 µM (inactive) | – | 52.6 µM (inactive) | 19.5 µM (inactive) | 42.5 µM (inactive) | 22.2 µM (inactive) | – | 17 µM (inactive) | – | 30.2 µM (inactive) | 87.1 µM (inactive) | 31.6 µM (inactive) | 29.4 µM (inactive) | – | 19.4 µM (inactive) | 18.1 µM (inactive) | 14 µM (inactive) | 15.2 µM (inactive) |
| CCNC(=O)CCN(C(=O)O)S(=O)(=O)c1ccc(NC(=O)c2ccccc2)cc1 | > 100 µM (inactive) | > 100 µM (inactive) | > 100 µM (inactive) | > 100 µM (inactive) | > 100 µM (inactive) | > 100 µM (inactive) | – | > 100 µM (inactive) | > 100 µM (inactive) | > 100 µM (inactive) | > 100 µM (inactive) | > 100 µM (inactive) | > 100 µM (inactive) | 35.6 µM (inactive) | > 100 µM (inactive) | – | > 100 µM (inactive) | – | – | > 100 µM (inactive) |
| O=C(Sc1c(-c2ccccc2)c(=O)n(-c2ccccc2)c(=S)n1-c1ccccc1)c1ccccc1 | > 100 µM (inactive) | > 100 µM (inactive) | – | > 100 µM (inactive) | > 100 µM (inactive) | > 100 µM (inactive) | 51.6 µM (inactive) | 32.1 µM (inactive) | 99.3 µM (inactive) | > 100 µM (inactive) | > 100 µM (inactive) | 33.5 µM (inactive) | > 100 µM (inactive) | 56 µM (inactive) | 47.4 µM (inactive) | 84.5 µM (inactive) | > 100 µM (inactive) | – | > 100 µM (inactive) | 31.3 µM (inactive) |
| O=C(O)CN1CCSc2ccccc2CN(CC(=O)O)CCSc2ccccc2C1 | > 100 µM (inactive) | > 100 µM (inactive) | > 100 µM (inactive) | > 100 µM (inactive) | > 100 µM (inactive) | > 100 µM (inactive) | – | > 100 µM (inactive) | > 100 µM (inactive) | > 100 µM (inactive) | > 100 µM (inactive) | > 100 µM (inactive) | > 100 µM (inactive) | > 100 µM (inactive) | > 100 µM (inactive) | – | > 100 µM (inactive) | – | – | 4.61 µM (inactive) |
| CC(=O)O[C@H]1CC[C@@]2(C)C(=CC[C@H]3C4=CC=C(C(C)=O)[C@@]4(C)CCC32)C1 (stereo partly specified) | 31 µM (inactive) | > 100 µM (inactive) | 47 µM (inactive) | 24 µM (inactive) | 63.8 µM (inactive) | 35.9 µM (inactive) | – | 27.6 µM (inactive) | 21.8 µM (inactive) | > 100 µM (inactive) | 56.2 µM (inactive) | 18.8 µM (inactive) | 13.4 µM (inactive) | 15.6 µM (inactive) | 41 µM (inactive) | – | 23.7 µM (inactive) | – | – | 19.6 µM (inactive) |
| CC(=O)Nc1cccc(/N=N/N(C)C)c1 | > 95.3 µM (inactive) | > 100 µM (inactive) | > 100 µM (inactive) | > 100 µM (inactive) | > 100 µM (inactive) | > 100 µM (inactive) | > 100 µM (inactive) | > 100 µM (inactive) | > 100 µM (inactive) | > 100 µM (inactive) | > 100 µM (inactive) | > 100 µM (inactive) | > 100 µM (inactive) | > 100 µM (inactive) | > 63.8 µM (inactive) | – | – | – | – | – |
| OCC(O)COc1ccc(F)cc1 (stereo unspecified) | > 100 µM (inactive) | > 100 µM (inactive) | > 100 µM (inactive) | > 100 µM (inactive) | > 100 µM (inactive) | > 100 µM (inactive) | – | > 100 µM (inactive) | > 100 µM (inactive) | > 100 µM (inactive) | > 100 µM (inactive) | > 100 µM (inactive) | > 100 µM (inactive) | > 100 µM (inactive) | > 100 µM (inactive) | – | > 100 µM (inactive) | – | – | > 100 µM (inactive) |
| C=CCn1c(-c2ccc(Cl)cc2)cs/c1=N\c1ccccc1OC | > 47.2 µM (inactive) | > 45.2 µM (inactive) | > 76.7 µM (inactive) | 7.46 µM (inactive) | > 95.5 µM (inactive) | 40.8 µM (inactive) | 27.4 µM (inactive) | > 65 µM (inactive) | 27 µM (inactive) | 48.9 µM (inactive) | > 100 µM (inactive) | 10.1 µM (inactive) | 35.8 µM (inactive) | 9.31 µM (inactive) | 16.6 µM (inactive) | 2.1 µM (inactive) | > 100 µM (inactive) | – | 32.7 µM (inactive) | 0.195 µM (active) |
| CCCC(O)C(NC(=O)CCl)C(=O)O (stereo unspecified) | > 100 µM (inactive) | > 100 µM (inactive) | > 100 µM (inactive) | > 100 µM (inactive) | > 100 µM (inactive) | > 100 µM (inactive) | > 100 µM (inactive) | > 100 µM (inactive) | > 100 µM (inactive) | > 100 µM (inactive) | > 100 µM (inactive) | > 100 µM (inactive) | > 100 µM (inactive) | > 100 µM (inactive) | > 100 µM (inactive) | – | – | – | – | – |
| CSCCC(NC(=O)C(Cc1ccccc1)NC(=O)CNC(=O)CNC(=O)C(N)Cc1ccc(O)cc1)C(=O)O (stereo unspecified) | > 100 µM (inactive) | > 100 µM (inactive) | > 100 µM (inactive) | > 100 µM (inactive) | > 100 µM (inactive) | > 100 µM (inactive) | > 100 µM (inactive) | > 100 µM (inactive) | > 100 µM (inactive) | > 100 µM (inactive) | > 100 µM (inactive) | > 100 µM (inactive) | > 100 µM (inactive) | > 100 µM (inactive) | > 100 µM (inactive) | – | – | – | – | – |
| O=Cc1ccc(-c2cccc([N+](=O)[O-])c2)s1 | > 100 µM (inactive) | > 100 µM (inactive) | > 100 µM (inactive) | > 100 µM (inactive) | > 100 µM (inactive) | > 100 µM (inactive) | > 100 µM (inactive) | > 100 µM (inactive) | 80.9 µM (inactive) | > 100 µM (inactive) | > 100 µM (inactive) | > 100 µM (inactive) | > 100 µM (inactive) | > 100 µM (inactive) | > 100 µM (inactive) | – | > 100 µM (inactive) | > 100 µM (inactive) | > 100 µM (inactive) | 56.5 µM (inactive) |
| C(/C=N/c1ccccc1)=C(/Nc1ccccc1)c1ccc2ccccc2c1 | 0.231 µM (active) | 2.76 µM (inactive) | 1.83 µM (inactive) | 4.55 µM (inactive) | 2.29 µM (inactive) | 1.46 µM (inactive) | 3.18 µM (inactive) | 9.62 µM (inactive) | 3.61 µM (inactive) | 1.82 µM (inactive) | 2.88 µM (inactive) | 0.548 µM (active) | 1.85 µM (inactive) | 1.87 µM (inactive) | 1.47 µM (inactive) | – | 1.45 µM (inactive) | 1.29 µM (inactive) | 1.55 µM (inactive) | 0.676 µM (active) |
| NC(=O)c1ncn2c1NCC1OC2C(O)C1O (stereo unspecified) | > 100 µM (inactive) | > 100 µM (inactive) | > 100 µM (inactive) | > 100 µM (inactive) | > 100 µM (inactive) | > 100 µM (inactive) | – | > 100 µM (inactive) | > 100 µM (inactive) | > 100 µM (inactive) | > 100 µM (inactive) | > 100 µM (inactive) | > 100 µM (inactive) | > 100 µM (inactive) | > 100 µM (inactive) | – | > 100 µM (inactive) | – | – | > 100 µM (inactive) |
| Cc1cc(C)c2c(O)cc(-c3ccc(F)cc3)nc2n1 | 37.3 µM (inactive) | 87.9 µM (inactive) | > 100 µM (inactive) | 33.1 µM (inactive) | > 100 µM (inactive) | – | 30.7 µM (inactive) | 29.9 µM (inactive) | 76.7 µM (inactive) | > 100 µM (inactive) | 32.4 µM (inactive) | 33.7 µM (inactive) | 32.1 µM (inactive) | – | – | – | 95.1 µM (inactive) | 63 µM (inactive) | – | 23.3 µM (inactive) |
